From ChEMBL document CHEMBL5715260, “Selectivity Literature for EUbOPEN Chemogenomic Library” (2024) come the findings set out here.

Where a SMILES comes first, the peptide text is derived from it. [ ]: non-standard residue; d: D form. The star is where a group is joined. Lys(Me,2-norbornyl) = CN(CCCC[C@H](N)C(=O)O)C1CC2CCC1C2; Benzoyl(4-tBu) = CC(C)(C)c1ccc(C(=O)*)cc1; CH2Cl = ClC*

Set-up in all cases: recommended concentration 1 uM
Experiment [1] has as its target Chromodomain Y-like protein 2 (Homo sapiens, UniProt Q8N8U2). Kind of experiment: Selectivity interaction (SPR) EUB0001090a CDYL2.
Experiment [2] deals with T1, Chromobox protein homolog 2 (Homo sapiens, UniProt Q14781).
T1 sequence (Q14781 whole entry): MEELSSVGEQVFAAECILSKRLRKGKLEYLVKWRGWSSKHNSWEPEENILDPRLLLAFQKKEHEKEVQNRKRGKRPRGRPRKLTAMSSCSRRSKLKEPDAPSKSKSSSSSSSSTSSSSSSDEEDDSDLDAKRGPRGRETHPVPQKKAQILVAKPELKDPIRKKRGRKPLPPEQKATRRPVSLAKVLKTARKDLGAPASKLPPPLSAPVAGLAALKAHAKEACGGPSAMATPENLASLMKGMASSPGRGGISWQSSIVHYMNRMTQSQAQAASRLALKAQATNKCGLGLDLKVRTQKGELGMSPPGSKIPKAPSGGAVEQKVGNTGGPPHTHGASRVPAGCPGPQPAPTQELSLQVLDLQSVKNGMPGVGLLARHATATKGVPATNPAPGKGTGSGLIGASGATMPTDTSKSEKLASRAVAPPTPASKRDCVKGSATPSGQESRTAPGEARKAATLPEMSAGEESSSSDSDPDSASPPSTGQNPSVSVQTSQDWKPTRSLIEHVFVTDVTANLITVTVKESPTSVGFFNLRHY
Nature of the experiment: Selectivity interaction (SPR) EUB0001090a CBX2.

For experiment [3], the target named is Chromobox protein homolog 8 (Homo sapiens, UniProt Q9HC52). Kind of experiment: Selectivity interaction (SPR) EUB0001090a CBX8.
For experiment [4], the target named is Chromobox protein homolog 6 (Homo sapiens, UniProt O95503). Kind of experiment: Selectivity interaction (SPR) EUB0001090a CBX6.
For experiment [5], the target named is E3 SUMO-protein ligase CBX4 (Homo sapiens, UniProt O00257). Nature of the experiment: Selectivity interaction (SPR) EUB0001090a CBX4.
In experiment [6] the target is T2, Histone-lysine N-methyltransferase 2A (Homo sapiens, UniProt Q03164). Kind of experiment: (§1) Selectivity interaction (Enzymatic assay) EUB0002166aAD MLL.
Experiment [7] deals with T2, Histone-lysine N-methyltransferase 2A. The experiment is described as §1. This is another data set of the same source.
Experiment [8] deals with T3, Caspase-5 (Homo sapiens, UniProt P51878).
T3 sequence (P51878 whole entry): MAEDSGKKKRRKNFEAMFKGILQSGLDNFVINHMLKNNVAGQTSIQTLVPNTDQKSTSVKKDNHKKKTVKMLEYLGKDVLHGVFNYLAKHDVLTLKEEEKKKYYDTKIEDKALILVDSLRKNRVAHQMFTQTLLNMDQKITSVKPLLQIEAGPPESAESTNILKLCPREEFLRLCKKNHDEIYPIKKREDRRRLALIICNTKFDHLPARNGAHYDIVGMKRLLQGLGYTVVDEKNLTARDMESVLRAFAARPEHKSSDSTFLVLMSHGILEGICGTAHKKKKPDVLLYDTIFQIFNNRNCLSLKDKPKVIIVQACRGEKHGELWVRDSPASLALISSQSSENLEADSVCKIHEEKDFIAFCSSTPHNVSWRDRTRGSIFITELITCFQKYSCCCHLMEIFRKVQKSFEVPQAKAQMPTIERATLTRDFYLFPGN
Kind of experiment: Selectivity interaction (Eurofins (enzymatic assay)) EUB0002201a CASP5.

Experiment [9] has as its target Caspase-2 (Homo sapiens, UniProt P42575). Nature of the experiment: Selectivity interaction (Eurofins (enzymatic assay)) EUB0002201a CASP2.
Experiment [10] concerns the target T4, Caspase-9 (Homo sapiens, UniProt P55211).
T4 sequence (P55211 whole entry): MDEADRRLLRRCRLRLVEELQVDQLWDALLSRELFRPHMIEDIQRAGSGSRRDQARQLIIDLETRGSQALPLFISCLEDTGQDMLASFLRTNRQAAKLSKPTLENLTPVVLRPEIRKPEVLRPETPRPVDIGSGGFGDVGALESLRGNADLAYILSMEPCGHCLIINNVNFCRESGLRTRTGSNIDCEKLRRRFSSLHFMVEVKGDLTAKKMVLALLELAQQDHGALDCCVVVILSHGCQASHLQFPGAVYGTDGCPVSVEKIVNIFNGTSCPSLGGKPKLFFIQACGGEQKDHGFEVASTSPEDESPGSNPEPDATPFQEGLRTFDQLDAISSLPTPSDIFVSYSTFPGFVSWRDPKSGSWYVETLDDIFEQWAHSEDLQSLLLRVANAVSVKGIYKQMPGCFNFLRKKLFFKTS
Kind of experiment: Selectivity interaction (Eurofins (enzymatic assay)) EUB0002201a CASP9.

The target of experiment [11] is T5, Caspase-10 (Homo sapiens, UniProt Q92851).
T5 sequence (Q92851 whole entry): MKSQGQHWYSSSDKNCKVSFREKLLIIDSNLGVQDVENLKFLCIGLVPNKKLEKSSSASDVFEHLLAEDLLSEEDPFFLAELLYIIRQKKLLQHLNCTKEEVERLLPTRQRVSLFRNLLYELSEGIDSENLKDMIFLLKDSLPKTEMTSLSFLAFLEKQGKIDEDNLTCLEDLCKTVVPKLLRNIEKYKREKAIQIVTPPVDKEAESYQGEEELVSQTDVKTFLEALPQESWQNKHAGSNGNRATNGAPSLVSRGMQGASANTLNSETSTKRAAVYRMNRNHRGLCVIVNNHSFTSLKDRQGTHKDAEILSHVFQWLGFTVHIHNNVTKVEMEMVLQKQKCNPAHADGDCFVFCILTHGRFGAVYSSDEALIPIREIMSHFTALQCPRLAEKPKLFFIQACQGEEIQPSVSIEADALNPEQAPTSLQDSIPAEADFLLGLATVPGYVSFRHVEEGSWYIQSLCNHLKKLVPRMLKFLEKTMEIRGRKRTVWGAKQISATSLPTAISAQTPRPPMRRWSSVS
Kind of experiment: Selectivity interaction (Eurofins (enzymatic assay)) EUB0002201a CASP10.

Experiment [12] concerns the target Caspase-8 (Homo sapiens, UniProt Q14790). Kind of experiment: Selectivity interaction (Eurofins (enzymatic assay)) EUB0002201a CASP8.
The target in experiment [13] is Caspase-3 (Homo sapiens, UniProt P42574). Kind of experiment: Selectivity interaction (Eurofins (enzymatic assay)) EUB0002201a CASP3.
Experiment [14] concerns the target T6, Caspase-7 (Homo sapiens, UniProt P55210).
T6 sequence (P55210 whole entry): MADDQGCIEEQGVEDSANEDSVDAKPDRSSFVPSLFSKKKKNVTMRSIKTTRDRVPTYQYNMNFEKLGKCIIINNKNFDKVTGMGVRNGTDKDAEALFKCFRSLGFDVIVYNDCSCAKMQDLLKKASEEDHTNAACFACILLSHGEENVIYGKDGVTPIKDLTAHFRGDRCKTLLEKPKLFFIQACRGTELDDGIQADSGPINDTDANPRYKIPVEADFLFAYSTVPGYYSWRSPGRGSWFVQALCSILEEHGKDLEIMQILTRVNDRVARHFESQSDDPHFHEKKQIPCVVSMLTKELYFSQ
Nature of the experiment: Selectivity interaction (Eurofins (enzymatic assay)) EUB0002201a CASP7.

Experiment [15] deals with Caspase-6 (Homo sapiens, UniProt P55212). Kind of experiment: Selectivity interaction (Eurofins (enzymatic assay)) EUB0002201a CASP6.
Experiment [16] concerns the target T5, Caspase-10. Nature of the experiment: (§2) Selectivity interaction (Enzymatic assay) EUB0002198aAD CASP10.
For experiment [17], the target named is T5, Caspase-10. Described as §2. This is another data set of the same source.
Experiment [18] addresses Caspase-4 (Homo sapiens, UniProt P49662). Kind of experiment: Selectivity interaction (Enzymatic assay) EUB0002198aAD CASP4.
For experiment [19], the target named is T3, Caspase-5. Kind of experiment: Selectivity interaction (Enzymatic assay) EUB0002198aAD CASP5.
The target in experiment [20] is Caspase-14 (Homo sapiens, UniProt P31944). Kind of experiment: Selectivity interaction (Enzymatic assay) EUB0002198aAD CASP14.
Experiment [21] deals with T5, Caspase-10. The description is as §2. This is another data set of the same source.
For experiment [22], the target named is T4, Caspase-9. Nature of the experiment: Selectivity interaction (Enzymatic assay) EUB0002198aAD CASP9.
The target of experiment [23] is Poly [ADP-ribose] polymerase tankyrase-1 (Homo sapiens, UniProt O95271). Kind of experiment: Selectivity interaction (Enzymatic assay) EUB0002249a TNKS1.
In experiment [24] the target is Poly [ADP-ribose] polymerase 1 (Homo sapiens, UniProt P09874). Nature of the experiment: Selectivity interaction (Enzymatic assay) EUB0002249a PARP1.
For experiment [25], the target named is T3, Caspase-5. Nature of the experiment: (§3) Selectivity interaction (Enzymatic assay) EUB0002176a CASP5.
Experiment [26] has as its target T3, Caspase-5. The description is as §3. The source holds these as a separate data set.

T2 sequence (Q03164 1-2718 limits assumed): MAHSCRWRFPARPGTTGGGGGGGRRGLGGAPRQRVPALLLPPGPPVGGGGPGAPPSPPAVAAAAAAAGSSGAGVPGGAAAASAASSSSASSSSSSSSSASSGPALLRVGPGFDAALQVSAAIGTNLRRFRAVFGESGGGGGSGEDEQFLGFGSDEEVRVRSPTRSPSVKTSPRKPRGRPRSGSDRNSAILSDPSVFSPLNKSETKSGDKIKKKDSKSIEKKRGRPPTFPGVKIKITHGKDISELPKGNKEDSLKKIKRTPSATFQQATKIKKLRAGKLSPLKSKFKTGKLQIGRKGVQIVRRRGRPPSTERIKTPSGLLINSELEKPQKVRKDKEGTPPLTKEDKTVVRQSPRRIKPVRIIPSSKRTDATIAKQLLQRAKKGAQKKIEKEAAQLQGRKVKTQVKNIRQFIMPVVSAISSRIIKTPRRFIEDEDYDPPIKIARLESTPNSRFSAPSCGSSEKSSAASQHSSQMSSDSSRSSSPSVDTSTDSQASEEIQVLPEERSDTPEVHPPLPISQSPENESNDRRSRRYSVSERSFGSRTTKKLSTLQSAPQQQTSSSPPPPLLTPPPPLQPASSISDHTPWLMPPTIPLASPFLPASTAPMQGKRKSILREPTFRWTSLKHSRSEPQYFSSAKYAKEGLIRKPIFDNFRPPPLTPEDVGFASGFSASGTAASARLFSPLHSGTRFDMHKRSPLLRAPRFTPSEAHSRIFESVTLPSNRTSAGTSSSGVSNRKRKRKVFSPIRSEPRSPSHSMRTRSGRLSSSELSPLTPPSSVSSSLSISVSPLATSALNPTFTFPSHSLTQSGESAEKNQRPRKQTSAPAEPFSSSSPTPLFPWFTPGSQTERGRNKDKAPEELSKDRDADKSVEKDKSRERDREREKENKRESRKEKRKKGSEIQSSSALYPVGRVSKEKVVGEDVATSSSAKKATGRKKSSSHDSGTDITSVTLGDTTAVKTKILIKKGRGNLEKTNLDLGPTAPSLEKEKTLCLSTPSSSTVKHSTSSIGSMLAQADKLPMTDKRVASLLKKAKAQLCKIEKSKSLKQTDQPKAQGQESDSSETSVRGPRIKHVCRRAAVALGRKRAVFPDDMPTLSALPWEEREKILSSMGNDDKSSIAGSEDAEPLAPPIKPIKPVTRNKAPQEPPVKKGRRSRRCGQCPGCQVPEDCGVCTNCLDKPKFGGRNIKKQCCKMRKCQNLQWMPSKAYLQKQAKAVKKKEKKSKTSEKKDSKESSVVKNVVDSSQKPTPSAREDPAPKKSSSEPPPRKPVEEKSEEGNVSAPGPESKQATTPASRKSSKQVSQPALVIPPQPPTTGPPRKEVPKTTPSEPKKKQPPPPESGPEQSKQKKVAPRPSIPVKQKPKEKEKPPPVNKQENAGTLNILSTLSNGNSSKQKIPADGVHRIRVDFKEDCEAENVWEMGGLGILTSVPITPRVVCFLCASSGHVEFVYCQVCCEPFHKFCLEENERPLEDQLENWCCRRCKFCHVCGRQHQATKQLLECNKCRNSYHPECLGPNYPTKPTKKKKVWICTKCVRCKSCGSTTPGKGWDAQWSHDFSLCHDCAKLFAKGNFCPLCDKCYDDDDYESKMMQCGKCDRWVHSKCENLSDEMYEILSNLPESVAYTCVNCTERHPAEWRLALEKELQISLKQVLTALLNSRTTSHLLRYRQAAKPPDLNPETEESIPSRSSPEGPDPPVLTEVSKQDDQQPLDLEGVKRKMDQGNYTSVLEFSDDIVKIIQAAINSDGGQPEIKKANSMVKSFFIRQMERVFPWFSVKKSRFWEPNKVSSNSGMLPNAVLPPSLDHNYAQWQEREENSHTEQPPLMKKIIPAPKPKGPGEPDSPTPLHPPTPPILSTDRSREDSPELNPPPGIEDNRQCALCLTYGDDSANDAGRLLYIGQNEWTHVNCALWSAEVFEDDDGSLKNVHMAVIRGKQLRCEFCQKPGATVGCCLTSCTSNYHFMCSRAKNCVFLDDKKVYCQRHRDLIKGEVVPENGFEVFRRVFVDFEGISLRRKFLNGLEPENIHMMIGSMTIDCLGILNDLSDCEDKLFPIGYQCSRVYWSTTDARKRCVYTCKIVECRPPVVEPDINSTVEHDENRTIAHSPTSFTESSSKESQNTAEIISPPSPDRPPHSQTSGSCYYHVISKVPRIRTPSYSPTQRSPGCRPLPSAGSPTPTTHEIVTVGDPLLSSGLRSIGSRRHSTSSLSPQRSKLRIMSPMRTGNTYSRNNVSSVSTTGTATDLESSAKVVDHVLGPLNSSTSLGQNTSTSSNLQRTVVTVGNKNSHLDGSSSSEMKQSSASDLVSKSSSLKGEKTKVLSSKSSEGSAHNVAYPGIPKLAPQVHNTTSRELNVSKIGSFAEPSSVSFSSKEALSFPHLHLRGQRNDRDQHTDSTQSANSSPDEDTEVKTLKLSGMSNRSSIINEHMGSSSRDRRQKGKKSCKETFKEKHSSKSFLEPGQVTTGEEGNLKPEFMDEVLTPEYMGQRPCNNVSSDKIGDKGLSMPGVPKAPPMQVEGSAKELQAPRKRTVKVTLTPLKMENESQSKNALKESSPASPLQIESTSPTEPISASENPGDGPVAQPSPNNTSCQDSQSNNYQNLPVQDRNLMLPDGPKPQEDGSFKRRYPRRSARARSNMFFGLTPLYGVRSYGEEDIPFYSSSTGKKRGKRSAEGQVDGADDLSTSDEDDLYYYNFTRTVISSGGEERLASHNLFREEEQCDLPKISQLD
T2 sequence (Q03164 2719-3969 limits assumed): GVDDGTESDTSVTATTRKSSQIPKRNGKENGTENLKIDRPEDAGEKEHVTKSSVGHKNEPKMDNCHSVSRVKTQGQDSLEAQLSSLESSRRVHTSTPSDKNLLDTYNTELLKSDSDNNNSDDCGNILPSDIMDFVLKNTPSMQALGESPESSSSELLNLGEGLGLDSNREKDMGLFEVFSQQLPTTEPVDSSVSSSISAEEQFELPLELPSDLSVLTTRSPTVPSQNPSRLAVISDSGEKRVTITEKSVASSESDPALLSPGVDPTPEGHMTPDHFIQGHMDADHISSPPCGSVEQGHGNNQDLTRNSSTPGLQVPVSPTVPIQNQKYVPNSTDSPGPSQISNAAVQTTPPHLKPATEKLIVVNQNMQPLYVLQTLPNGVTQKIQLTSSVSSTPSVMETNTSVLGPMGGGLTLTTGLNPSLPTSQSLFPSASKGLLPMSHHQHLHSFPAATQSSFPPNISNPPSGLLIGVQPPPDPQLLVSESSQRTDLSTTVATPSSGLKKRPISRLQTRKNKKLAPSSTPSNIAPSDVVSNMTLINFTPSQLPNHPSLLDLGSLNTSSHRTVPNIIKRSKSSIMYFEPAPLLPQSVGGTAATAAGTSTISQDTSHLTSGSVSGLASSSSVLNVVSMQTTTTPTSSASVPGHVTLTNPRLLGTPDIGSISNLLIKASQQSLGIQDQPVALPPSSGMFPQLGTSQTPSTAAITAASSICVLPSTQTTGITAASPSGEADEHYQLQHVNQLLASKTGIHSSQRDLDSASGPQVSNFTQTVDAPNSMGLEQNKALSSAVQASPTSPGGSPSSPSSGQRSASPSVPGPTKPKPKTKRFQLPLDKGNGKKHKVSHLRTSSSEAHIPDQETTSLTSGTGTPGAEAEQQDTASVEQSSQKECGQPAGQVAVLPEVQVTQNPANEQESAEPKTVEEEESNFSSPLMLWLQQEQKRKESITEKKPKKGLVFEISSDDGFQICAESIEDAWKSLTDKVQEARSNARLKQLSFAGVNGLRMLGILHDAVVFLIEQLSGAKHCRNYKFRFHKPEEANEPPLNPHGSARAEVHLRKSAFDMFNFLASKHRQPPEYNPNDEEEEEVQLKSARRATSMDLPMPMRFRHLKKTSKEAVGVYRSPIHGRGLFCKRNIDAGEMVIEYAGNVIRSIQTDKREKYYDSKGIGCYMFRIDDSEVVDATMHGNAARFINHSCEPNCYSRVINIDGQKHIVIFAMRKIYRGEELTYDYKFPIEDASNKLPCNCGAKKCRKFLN
Chain of Caspase-14 (P31944 6-146 limits assumed): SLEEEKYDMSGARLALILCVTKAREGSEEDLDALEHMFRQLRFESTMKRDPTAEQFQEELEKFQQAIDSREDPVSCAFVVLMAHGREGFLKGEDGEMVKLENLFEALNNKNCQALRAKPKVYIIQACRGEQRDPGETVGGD
Chain of Caspase-14 (P31944 153-242 limits assumed): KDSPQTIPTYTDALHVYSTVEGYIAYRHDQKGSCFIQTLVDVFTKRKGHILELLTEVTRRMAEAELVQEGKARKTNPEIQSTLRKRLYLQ
Chain of Caspase-3 (P42574 29-175 limits assumed): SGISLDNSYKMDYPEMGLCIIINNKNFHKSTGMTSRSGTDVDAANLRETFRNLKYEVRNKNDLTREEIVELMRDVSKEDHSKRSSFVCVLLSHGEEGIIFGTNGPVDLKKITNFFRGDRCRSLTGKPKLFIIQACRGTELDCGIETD
Chain of Caspase-3 (P42574 176-277 limits assumed): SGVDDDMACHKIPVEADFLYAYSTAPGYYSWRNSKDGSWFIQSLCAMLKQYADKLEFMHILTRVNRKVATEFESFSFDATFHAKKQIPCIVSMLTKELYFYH
Chain of Caspase-6 (P55212 24-179 limits assumed): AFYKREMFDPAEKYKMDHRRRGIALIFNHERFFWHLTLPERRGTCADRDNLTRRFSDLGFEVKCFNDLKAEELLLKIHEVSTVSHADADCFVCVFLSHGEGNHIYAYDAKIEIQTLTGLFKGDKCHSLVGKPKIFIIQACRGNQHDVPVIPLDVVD
Chain of Caspase-6 (P55212 194-293 limits assumed): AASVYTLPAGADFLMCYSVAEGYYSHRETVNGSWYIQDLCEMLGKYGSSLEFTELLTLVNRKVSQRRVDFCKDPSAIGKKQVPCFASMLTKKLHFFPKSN
Chain of Caspase-4 (P49662 81-270 limits assumed): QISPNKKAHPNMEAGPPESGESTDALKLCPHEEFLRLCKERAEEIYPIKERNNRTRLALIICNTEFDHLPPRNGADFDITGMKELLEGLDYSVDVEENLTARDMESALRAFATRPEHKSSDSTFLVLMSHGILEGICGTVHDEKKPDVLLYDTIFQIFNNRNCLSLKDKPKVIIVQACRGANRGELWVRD
Chain of Caspase-4 (P49662 290-377 limits assumed): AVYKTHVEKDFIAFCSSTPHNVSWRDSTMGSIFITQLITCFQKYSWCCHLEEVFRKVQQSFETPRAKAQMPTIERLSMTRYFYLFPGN

`COC(=O)[C@H](CO)NC(=O)[C@H](CCCCN(C)C1CC2CCC1C2)NC(=O)[C@H](CC(C)C)NC(=O)[C@H](C)NC(=O)[C@H](Cc1ccccc1)NC(=O)c1ccc(C(C)(C)C)cc1` (stereo partly specified) ({Benzoyl(4-tBu)}-FAL[Lys(Me,2-norbornyl)]S-OMe): the Kd (as a rule, the free concentration of one partner at which half of the binding sites on the other are occupied at equilibrium, for simple one-to-one binding) in experiment [1] is 415 nM; in [2], 1750 nM; in [3], 458 nM; in [4] it was 543 nM; in experiment [5], 26.7 nM.
For `Cc1nc(F)ccc1-c1cc(Cn2ccn(C)c2=N)cc(C(=O)NCc2ccc(Cl)c(Cl)c2)c1`, the half-maximal inhibitory concentration (IC50) in experiment [6] and in experiment [7] was 19.9 nM throughout.
For `CC(=O)N[C@@H](CC(C)C)C(=O)N[C@@H](CCC(=O)O)C(=O)N[C@H](C(=O)N[C@H](C=O)CC(=O)O)C(C)C` (Ac-LEVD-aldehyde), the IC50 (commonly the concentration that inhibits the measured activity by half) in experiment [8] was determined as 140 nM; in [9] it was 1700 nM; in experiment [10], 2.1 nM; in experiment [11], 140 nM; in [12] it was 3.3 nM; in experiment [13], 57 nM. Besides, the IC50 turned out to be 24 nM in experiment [14] and 57 nM in experiment [15].
Regarding `CC(=O)N[C@@H](CC(C)C)C(=O)N[C@@H](CCC(=O)O)C(=O)N[C@@H](Cc1cnc[nH]1)C(=O)N[C@H](C=O)CC(=O)O` (Ac-LEHD-aldehyde), the 50% inhibitory concentration (IC50) in [16] turned out to be 240 nM; in experiment [17], 40.4 nM; in experiment [18], 81.7 nM; in [19] it was 21.3 nM; in experiment [20], 134 nM; in experiment [21], 240 nM. Further, the IC50 in experiment [22] was 49.2 nM.
Consider `NC(=O)c1cccc(NC(=O)CCC(=O)NCCc2cn(CCNS(=O)(=O)c3cccc(C(=O)O)c3)nn2)c1`, for which the IC50 in experiment [23] was 9040 nM; in [24] it was 11700 nM.
With `CC(=O)N[C@@H](Cc1ccccc1)C(=O)N[C@@H](CC(C)C)C(=O)N[C@H](C(=O)N[C@@H](CC(=O)O)C(=O)CCl)[C@@H](C)O` (Ac-FLTD-CH2Cl), the IC50 in experiment [25] and in [26] was 329 nM throughout.
